According to ChEMBL document CHEMBL4118186 (Bioorg Med Chem Lett, 2018):

Columns and labels:
[1] = target: T1, Proteasome Macropain subunit MB1 (Homo sapiens, UniProt P28074); assay: Inhibition of chymotrypsin-like activity of human 20S proteasome using Suc-Leu-Leu-Val-Tyr-AMC as substrate after 1 hr by fluorescence analysis
T1 sequence (P28074 whole entry): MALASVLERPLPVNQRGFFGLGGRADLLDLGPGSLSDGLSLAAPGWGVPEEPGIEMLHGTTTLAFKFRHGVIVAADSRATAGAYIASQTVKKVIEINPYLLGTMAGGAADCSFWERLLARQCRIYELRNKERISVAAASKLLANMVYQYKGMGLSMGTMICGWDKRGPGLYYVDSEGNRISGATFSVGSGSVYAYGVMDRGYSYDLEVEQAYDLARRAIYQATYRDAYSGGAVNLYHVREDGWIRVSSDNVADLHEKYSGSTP

[2] = Metabolic stability in BALB/c mouse liver microsomes at 1 uM preincubated for 5 mins followed by NADP+ addition measured up to 40 mins by LC/MS method; assay type: ADME, microsome
[3] = Metabolic stability in human liver microsomes at 1 uM preincubated for 5 mins followed by NADP+ addition measured up to 40 mins by LC/MS method; assay type: ADME, microsome

Row | Compound | IC50 [1] | Stability [2] | Stability [3]
1 | CC(C)C[C@H](NC(=O)[C@H](Cc1ccccc1)OCc1cccc2ccccc12)B(O)O | 109 nM | – | –
2 | CC(C)C[C@H](NC(=O)[C@H](Cc1ccccc1)OCc1ccccc1)B(O)O | 36 nM | – | –
3 | CC(C)C[C@H](NC(=O)[C@H](Cc1ccccc1)NCc1ccccc1)B(O)O | 9.7 nM | Stable | Stable
4 | CC(C)C[C@H](NC(=O)[C@H](Cc1ccccc1)Oc1cccc2ccccc12)B(O)O | 275 nM | – | –
5 | CC(C)C[C@H](NC(=O)[C@H](Cc1ccccc1)NCc1cccc2ccccc12)B(O)O | 92 nM | – | –
6 | CC(C)C[C@H](NC(=O)[C@H](Cc1ccccc1)Nc1ccccc1)B(O)O | 335 nM | – | –
7 | CC(C)C[C@H](NC(=O)[C@H](Cc1ccccc1)Nc1cccc2ccccc12)B(O)O | 166 nM | – | –

The next lines start with the values.

Row | IC50 [1] | Stability [2] | Stability [3] | Compound
8 | 65 nM | – | – | CC(C)C[C@H](NC(=O)[C@H](Cc1ccccc1)NCc1cnccn1)B(O)O
9 | 53 nM | – | – | CC(C)C[C@H](NC(=O)[C@H](Cc1ccccc1)OCc1cnccn1)B(O)O
10 | 126 nM | – | – | CC(C)C[C@H](NC(=O)[C@H](Cc1ccccc1)Oc1ccccc1)B(O)O
11 | 155 nM | – | – | CC(C)C[C@H](NC(=O)[C@H](Cc1ccccc1)Oc1cnccn1)B(O)O
12 | 192 nM | – | – | CC(C)C[C@H](NC(=O)[C@H](Cc1ccccc1)Nc1cnccn1)B(O)O
